Laboratory results: US4279909A, “Antiallergic method” (Fujisawa Pharmaceutical Co., Ltd., priority 1980, dated 1981)
Counter-ions that a name gives are not always drawn.

How the values were obtained:
[1] = Acute toxicity in rat; details: in vivo, po; female rat, orally, seven days
Method: (§1) (6) Acute toxicity in mouse and rat
(§2) Each ten male and female ICR-JCL strain mice and Sprague-Dawley-JCL strain rats were used for each dose.
(§3) Test compound was given to animals in a form of suspension in 0.5% methyl cellose orally. After administration, the incidence of the death was recorded for successive seven days. LD50 values were calculated by the method of Lichfield-Wilcoxon method.

[2] = Acute toxicity in mouse; details: in vivo, po; female mouse, orally, seven days
Method: as §1, §2, §3

[3] = tested on: anaphylactic bronchoconstriction; experiment: Anaphylactic bronchoconstriction in guinea-pigs sensitized with homologous antiserum; assay type: in vivo; details: Cavia porcellus, iv; guinea-pig; intravenously 30 seconds before antigen
Method: (c) Guinea-pig antiserum against egg albumin
Five mg of egg albumin emulsified in 0.5 ml of physiological saline and 0.5 ml of Freund's incomplete adjuvant was used as the antigen.
The emulsion was given subcutaneously in a single dose of 1 ml divided equally (0.25 ml) to the four foot pads of male Hartly strain guinea pigs, each weighing 250 to 300 g. Starting two weeks after dosing with the aforementioned emulsion 0.1% egg albumin emulsified in physiological saline was given subcutaneously in equally divided (0.1 ml) doses of 0.4 ml once a week for 4 weeks to four sites on the backs of the test animals. Blood samples were collected from the carotid artery one week after the last injection, and centrifuged at 3000 r.p.m. at room temperature for 15 minutes. The antisera thus obtained were stored at -20° C.
(4) Anaphylactic bronchoconstriction in guinea-pigs sensitized with homologous antiserum
Male Hartly strain guinea-pigs were sensitized with an intravenous injection of 1 ml of homologous antiserum against egg albumin. And 48 hours later, the animals were immobilized with an intraperitoneal dose of 100 mg/kg of gallamine. The trachea was cannulated for artificial respiration which was performed with a miniature respiratory pump (3 ml/stroke, 60 strokes/minute). […]

[4] = tested on: histamine; experiment: Antagonistic effect on histamine in vitro (isolated guinea-pig ileum); details: histamine 1.0 × 10^-7 g/ml
Method: (5) Antagonistic effect on histamine in vitro
The ileum was connected to a strain gauge transducer and the contractions were recorded isometrically.

[5] = tested on: P.C.A. reaction; experiment: Passive cutaneous anaphylaxis (P.C.A.) in rats sensitized with homologous hyperimmune antiserum; assay type: in vivo; details: iv, rat, intravenously 30 seconds before antigen, read-out: ED50 (inhibitory effect of P.C.A. reaction)
Method: (b) Rat hyperimmune antiserum against egg albumin
Male Sprague-Dawley JCL strain rats were injected in the four foot pads with 10 mg of egg albumin emulsified in 0.5 ml of saline and 0.5 ml of Freund's complete adjuvant in divided portions. Seven days later, the animals were injected intramuscularly at three sites on a shaved area of their backs with a total of 5 mg of egg albumin emulsified in 0.5 ml of saline and 0.5 ml of Freund's complete adjuvant. On days 28 to 30, the animals were injected intracutaneously at two sites on the back with 0.2 mg of egg albumin in 0.2 ml of saline. The antiserum was obtained 7 days after the last injection and stored at -20° C.
(3) Passive cutaneous anaphylaxis (P.C.A.) in rats sensitized with homologous hyperimmune antiserum
P.C.A. reaction was performed in male Sprague-Dawley JCL strain rats passively sensitized with homologous hyperimmune antiserum against egg albumin. That is, 0.1 ml of the antiserum was injected into the skin on the back of rats, and 4 hours later 1 ml of mixture of egg albumin 5 mg and Evans' blue 5 mg was injected intravenously. One hour later, the animals were killed and the skin was removed. Evans' blue was then extracted from the sensitized spot with 10 ml of 4:1 mixture of aceton and 2% solution of RBS-25. The quantity of Evans' blue was determined by colorimetry at 620 mμ. The drug was given intravenously 30 seconds before dosing with antigen.

[6] = tested on: passive cutaneous anaphylaxis (P.C.A.); experiment: Antagonism to passive cutaneous anaphylaxis (P.C.A.) in rat sensitized with homologous reaginic antiserum; assay type: in vivo; details: test compound given orally 2 hours and intravenously 5 minutes before antigen
Method: (a) Rat reaginic antiserum against egg albumin
One mg of egg albumin emulsified in 0.5 ml of B. pertussisdiphtheria mixed vaccine (Tanabe Seiyaku Company Ltd.) and 0.5 ml of Freund's incomplete adjuvant (Difco) was used as the antigen. The emulsion was given subcutaneously in a single dose of 1 ml divided equally (0.25 ml) to the four foot pads of male Sprague-Dawley JCL strain rats aged 6 weeks, each weighing 170-220 g. Blood samples were collected from the femoral artery 12 days after injection, and centrifuged at 3000 r.p.m. at 4° C. for 15 minutes. The antisera thus obtained were stored at -20° C.
(2) Antagonism to passive cutaneous anaphylaxis (P.C.A.) in rat sensitized with homologous reaginic antiserum
Ten male Sprague-Dawley-JCL strain rats, weighing 290-310 g were used for each dose. The rat reaginic antiserum against egg albumin was used at a dilution 1:4. The animals were sensitized with 0.1 ml of the antiserum injected intracutaneously on the depilated backs of the rats. […] It was further centrifuged at 2000 r.p.m. for 15 minutes and the quantity of the dye in the supernatant solution was determined by colorimetry at 620 mμ. […] The inhibitory effect of test compound was determined from the dye amounts measured in comparison with the control group and the treated group and the ED50 value was calculated according to Litchfield-Wilcoxon method.

O=C(Cn1c(=O)sc2ccc(Cl)cc21)N1CCNCC1 [Compound A, 3-(1-piperazinyl)carbonylmethyl-5-chloro-2-benzothiazolinone]
LD50 at 168 h [1]: 734 mg/kg
LD50 at 168 h [2]: 219 mg/kg
ED50 [3]: 56 mg/kg
Percentage inhibition of histamin ([4]; 1.0 × 10^-5 g/ml test compound): 14%
Percentage inhibition of histamin ([4]; 1.6 × 10^-4 g/ml test compound): 82%
Percentage inhibition of histamin ([4]; 4.0 × 10^-5 g/ml test compound): 48%
Percentage inhibition of histamin ([4]; 8.0 × 10^-5 g/ml test compound): 59%
ED50 [5]: 9 mg/kg
ED50 [6]: 50 mg/kg

O=C(Cn1c(=O)sc2ccc(Cl)cc21)N1CCN(CCO)CC1 [Compound B, 3-[4-(2-hydroxyethyl)-1-piperazinylcarbonylmethyl]-5-chloro-2-benzothiazolinone hydrochloride]
ED50 [5]: 28 mg/kg

O=C(Cn1c(=O)sc2ccc(Cl)cc21)N1CCC(O)CC1 [Compound C, 3-(4-hydroxypiperidino)carbonylmethyl-5-chloro-2-benzothiazolinone]
ED50 [5]: 32 mg/kg

O=C(O)c1cc(=O)c2c(OCC(O)COc3cccc4oc(C(=O)O)cc(=O)c34)cccc2o1 [Compound D, disodium chromoglycate, reference compound]
Percentage inhibition of histamin ([4]; 1.0 × 10^-5 g/ml test compound): 2%
Percentage inhibition of histamin ([4]; 1.6 × 10^-4 g/ml test compound): 1%
Percentage inhibition of histamin ([4]; 4.0 × 10^-5 g/ml test compound): 4%
ED50 [5]: 105 mg/kg
